This note sets out measurements from patent US20220281899A1, “COMPOUND AND FLUORESCENTLY LABELED BIOLOGICAL SUBSTANCE USING THE SAME” (FUJIFILM Corporation, priority 2019, published 2022).

Type in all cases: physicochemical
Data set [1] is described as follows: Evaluation of fluorescence quantum yield (PBS solution, pH 7.4). The conditions noted are these: compound. How it is done: A PBS solution (pH 7.4) of the above compound was evaluated according to the method described in the following reference document.
“A Guide to Recording Fluorescence Quantum Yields” (a HORIBA Scientific document, available from https://www.horiba.com/fileadmin/uploads/Scientific/Documents/Fluorescence/quantumyields trad.pdf)
In the present test, it is preferable that the fluorescence quantum yield satisfies the evaluation rank “B” or higher from the viewpoint of practicality as the fluorescent compound.
B: 0.7 or more and less than 0.9
C: 0.5 or more and less than 0.7
D: 0.3 or more and less than 0.5
F: not evaluable due to low water solubility
(§1) The water solubility and the fluorescence quantum of the labeled antibody were evaluated according to the same methods as those described in Example 1 except that in the evaluation of the water solubility and the fluorescence quantum yield in Example 1, the sample for measurement was changed from the compound to the labeled antibody.

Data set [2] can be described thus: Evaluation of light resistance in aqueous solution (xenon lamp exposure, absorbance decrease). To be noted: compound; PBS pH 7.4; xenon lamp 22 mW/cm^2. As to the method: The above compound or labeled antibody (hereinafter, referred to as a sample) was dissolved in PBS having a pH of 7.4 so that the absorbance at the absorption wavelength peak was 0.095 to 0.105. In a state of being exposed to light using a merry-go-round type light irradiator, the obtained solution was subjected to the temporal measurement of the absorbance of the absorption wavelength peak of the sample with a spectroscope (manufactured by Agilent Technologies, Inc., product name: Agilent 8453).
For the light exposure using the merry-go-round type light irradiator, a xenon lamp UXL-500D-O (product name) manufactured by Ushio, Inc. was used, and an HA-50 filter and a Y44 filter manufactured by HOYA were used as sharp cut filters (both are product names), where the light exposure intensity was 22 mW/cm^2 (in terms of 500 nm conversion).
The absorbance at the absorption peak wavelength before light exposure was set to 100% and the light exposure time until the absorbance at this absorption peak wavelength decreases by 50% (the absorbance at the absorption peak wavelength reaches 50%) was measured. The results were evaluated based on the following evaluation standards. A high evaluation rank is highly preferable since stability is kept for a long time.
B: 60 hours or more and less than 80 hours
C: 40 hours or more and less than 60 hours
D: 20 hours or more and less than 40 hours […]

Data set [3] can be described thus: Evaluation of water solubility (PBS pH 7.4, UHPLC concentration of filtrate). To be noted: compound; PBS pH 7.4, 1% DMSO, 200 μM if completely dissolved. As to the method:
5 μL of a DMSO solution having a concentration of 20 mM of the above compound (hereinafter, referred to as a sample) and 495 μL of PBS having a pH of 7.4 were added and mixed in a 1.5 mL Eppendorf tube and stirred with a multi-shaker MS300 (product name, AS ONE Corporation) at 2,000 rpm for 30 minutes. The obtained mixed solution was allowed to be left for 60 minutes with light shielding and then subjected to centrifugal precipitation (12,000 rpm, 5 minutes). For the filtrate filtered using a filter having a pore diameter of 0.20 μm, the sample concentration was measured with Nexera UHPLC [product name, manufactured by Shimadzu Corporation, column: Shim-pack XR-ODSII] (the sample concentration is 200 μM in a case where the sample is completely dissolved) and evaluated based on the following evaluation standards.
In the present test, it is determined that a compound has passed the evaluation of the water solubility in a case where the compound has a rank “B” or higher.
B: 10 μM or more and less than 100 μM
C: 1 μM or more and less than 10 μM […]
as §1

Each structure is given as a SMILES string.

Consider `CC1=CC(C)=[N+]2C1=C(C)c1c(C)cc(C)n1[B-]2(F)F` [BODIPY493/503], for which the Fluorescence quantum yield entry in data set [1] is on record as “A (0.9 or more)”. The “Light resistance (light exposure time until absorbance at absorption peak reaches 50%)” value in data set [2] is on record as “F (less than 10 hours)”. In data set [3], the Water solubility entry is “C (1 μM or more and less than 10 μM)”.

Regarding `Cc1cc(C)n2c1C=C1C=CC(CCC(=O)O)=[N+]1[B-]2(F)F` [BODIPY FL], the Fluorescence quantum yield result in data set [1] is “B (0.7 or more and less than 0.9)”. In addition, the “Light resistance (light exposure time until absorbance at absorption peak reaches 50%)” value in data set [2] is given as “F (less than 10 hours)”. For the same compound, in data set [3], the Water solubility result is “C (1 μM or more and less than 10 μM)”.
